# Where a name gives a salt, the structure may show the parent alone. Read-outs that look alike come from different tables or passages of the source.
# Tests used:
# [1] = target: arginine vasopressin V2 receptor (Oryctolagus cuniculus, UniProt G1TA00); assay: V2 receptor binding assay ([3H]-Arg-vasopressin, rabbit renal medulla membrane); conditions: for antagonism on V2 receptor (in words): compared with OPC-31260 and OPC-21268; for Binding activity on arginine vasopressin V2 receptor (pKi): rabbit renal medulla membrane, [3H]-Arg-vasopressin 2 nM
# [2] = target: T1, arginine vasopressin V1 receptor (Rattus norvegicus, UniProt P30560); assay: V1 receptor binding assay ([3H]-Arg-vasopressin, rat liver membrane); conditions: for antagonism on V1 receptor (in words): compared with OPC-31260 and OPC-21268
# T1 construct: A rat liver membrane sample was prepared; from tissue; host or cells: rat liver membranes
# Experimental: (1) V1 receptor binding assay
# A rat liver membrane sample was prepared in accordance with the method of Nakamura et al. (J. Biol. Chem., 258, 9283 (1983)), and [^3 H]-Arg-vasopressin (2 nM, specific activity=75.8 Ci/mmol), 70 μg of the membrane sample and each drug to be tested (10^-8 to 10^-4 M) were incubated at 30° C. for 30 minutes in 250 μl of 100 mM Tris-HCl buffer (pH=8.0) containing 5 mM of magnesium chloride, 1 mM of ethylenediaminetetraacetic acid (EDTA) and 0.1% of bovine serum albumin (BSA). Thereafter, the incubation solution was sucked off using a cell harvester and free ligand and excess buffer were removed by passing the reaction mixture through a glass filter (GF/B), thereby trapping receptor-bound labeled ligand on the glass filter. The glass filter was taken out, thoroughly dried and then mixed with a liquid scintillation cocktail, and the amount of the membrane-bound [^3 H]-vasopressin was measured using a liquid scintillation counter to calculate the inhibition ratio by the following formula. [formula] C1 : amount of [^3 H]-vasopressin bound to the membrane in the coexistence of known amount of each drug to be tested and [^3 H]-vasopressin
# C0 : amount of [^3 H]-vasopressin bound to the membrane when the drug to be tested was not added
# B1 : amount of [^3 H]-vasopressin bound to the membrane in the presence of excess vasopressin (10^-6 M)
# [formula] [L]: concentration of radioactive ligand KD: dissociation constant calculated from Scatchard plot
# Negative logarithm of the thus calculated Ki value was used as pKi value.
# [3] = rat liver membrane, [3H]-Arg-vasopressin 2 nM, 30° C., 30 minutes, pH 8.0, read-out: Binding activity on arginine vasopressin V1 receptor (pKi) (converted)
# T1 sequence (P30560 whole entry): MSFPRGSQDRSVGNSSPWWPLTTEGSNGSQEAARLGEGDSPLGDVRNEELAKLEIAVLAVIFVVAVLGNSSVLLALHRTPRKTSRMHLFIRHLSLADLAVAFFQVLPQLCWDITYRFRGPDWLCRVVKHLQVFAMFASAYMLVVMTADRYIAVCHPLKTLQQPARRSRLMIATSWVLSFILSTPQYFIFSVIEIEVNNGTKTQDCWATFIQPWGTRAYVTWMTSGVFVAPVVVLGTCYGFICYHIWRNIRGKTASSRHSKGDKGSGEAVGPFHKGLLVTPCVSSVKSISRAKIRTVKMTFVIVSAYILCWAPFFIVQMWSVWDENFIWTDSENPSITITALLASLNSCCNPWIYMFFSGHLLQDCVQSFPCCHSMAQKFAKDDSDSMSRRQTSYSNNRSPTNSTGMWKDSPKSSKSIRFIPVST
# Sequence of arginine vasopressin V2 receptor (G1TA00 78-446): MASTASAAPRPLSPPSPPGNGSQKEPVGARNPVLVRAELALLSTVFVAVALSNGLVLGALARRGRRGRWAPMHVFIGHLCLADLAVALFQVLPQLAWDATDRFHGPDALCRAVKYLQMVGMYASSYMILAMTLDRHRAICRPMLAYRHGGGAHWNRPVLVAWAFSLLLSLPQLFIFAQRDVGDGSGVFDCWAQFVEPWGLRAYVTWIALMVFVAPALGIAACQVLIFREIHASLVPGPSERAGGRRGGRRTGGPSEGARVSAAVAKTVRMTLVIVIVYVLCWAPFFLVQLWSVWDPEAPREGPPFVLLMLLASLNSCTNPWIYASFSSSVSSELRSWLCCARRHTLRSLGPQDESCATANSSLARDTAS
compound,measurement,setting,value
"Cl.O=C(/C=C1/c2ccccc2N(C(=O)c2ccc(NC(=O)c3ccccc3-c3ccccc3)cc2)CCC1(F)F)NC1CN2CCC1CC2 (racemic) [Example 85, (±)-(Z)-4'-[[4,4-difluoro-5-[[N-(3-quinuclidinyl)carbamoyl]methylene]-2,3,4,5-tetrahydro-1H-1-benzazepin-1-yl]carbonyl]-2-phenylbenzanilide hydrochloride]",antagonism on V2 receptor (in words),[1],excellent antagonisms on both V1 and V2 receptors
same,Binding activity on arginine vasopressin V2 receptor (pKi),[1],9.97
same,antagonism on V1 receptor (in words),[2],excellent antagonisms on both V1 and V2 receptors
same,Ki,[2]; [3],0.0955 nM
"Cc1ccc(-c2ccccc2C(=O)Nc2ccc(C(=O)N3CCC(F)(F)/C(=C\C#N)c4ccccc43)cc2)cc1 [Compound 22 (a), 4'-[(5-cyanomethylene-4,4-difluoro-2,3,4,5-tetrahydro-1H-1-benzazepin-1-yl)carbonyl]-2-(4methylphenyl)benzanilide]",Binding activity on arginine vasopressin V2 receptor (pKi),[1],8.36
same,Ki,[2],9.55 nM
"Cl.O=C(Nc1ccc(C(=O)N2CCC(F)(F)/C(=C\C(=O)N3CCNCC3)c3ccccc32)cc1)c1ccccc1-c1ccccc1 [Example 12, (Z)-4'-[[4,4-difluoro-5-[(1piperazinylcarbonyl)methylene]-2,3,4,5-tetrahydro-1H-1-benzazepin-1-yl]carbonyl]-2-phenylbenzanilide hydrochloride]",antagonism on V2 receptor (in words),[1],excellent antagonisms on both V1 and V2 receptors
same,Binding activity on arginine vasopressin V2 receptor (pKi),[1],9.71
same,antagonism on V1 receptor (in words),[2],excellent antagonisms on both V1 and V2 receptors
same,Ki,[2]; [3],0.219 nM
"O=C(/C=C1/c2ccccc2N(C(=O)c2ccc(NC(=O)c3ccccc3-c3ccccc3)cc2)CCC1(F)F)NCc1ccccn1 [Example 14, (Z)-4'-[[4,4-difluoro-5-[N-(2-pyridylmethyl)carbonylmethylene]-2,3,4,5-tetrahydro-1H-1-benzazepin-1-yl]carbonyl]-2-phenylbenzanilide hydrochloride]",Binding activity on arginine vasopressin V2 receptor (pKi),[1],9.39
same,Ki,[2]; [3],1.23 nM
"CN(C)CCN(C)C(=O)/C=C1/c2ccccc2N(C(=O)c2ccc(NC(=O)c3ccccc3-c3ccccc3)cc2)CCC1(F)F [Example 15, (Z)-4'-[4,4-difluoro-5-[[N-(2-dimethylaminoethyl)-N-methylcarbonylmethylene]-2,3,4,5-tetrahydro-1H-1-benzazepin-1-yl]carbonyl]-2-phenylbenzanilide hydrochloride]",antagonism on V2 receptor (in words),[1],excellent antagonisms on both V1 and V2 receptors
same,Binding activity on arginine vasopressin V2 receptor (pKi),[1],9.13
same,antagonism on V1 receptor (in words),[2],excellent antagonisms on both V1 and V2 receptors
same,Ki,[2]; [3],0.162 nM
"Cc1cccc(-c2ccccc2C(=O)Nc2ccc(C(=O)N3CCC(F)(F)/C(=C\C(=O)N4CCN(C)CC4)c4ccccc43)cc2)c1.Cl [Example 19, (Z)-4'-[[4,4-difluoro-5-(4-methyl-1-piperazinyl)carbonylmethylene-2,3,4,5-tetrahydro-1H-1-benzazepin-1-yl]carbonyl]-2-(3-methylphenyl)benzanilide hydrochloride]",Binding activity on arginine vasopressin V2 receptor (pKi),[1],8.84
same,Ki,[2]; [3],2.63 nM
"O=C(Nc1ccc(C(=O)N2CCC(F)(F)/C(=C\C(=O)N3CCCNCC3)c3ccccc32)cc1)c1ccccc1-c1ccccc1 [Example 28, (Z)-4'-[[[5-[(hexahydro-1,4-diazepin-1-yl)carbonyl]methylene]-4,4-difluoro-2,3,4,5-tetrahydro-1H-1-benzazepin-1-yl]carbonyl]-2-phenylbenzanilide hydrochloride]",antagonism on V2 receptor (in words),[1],excellent antagonisms on both V1 and V2 receptors
same,Binding activity on arginine vasopressin V2 receptor (pKi),[1],9.37
same,antagonism on V1 receptor (in words),[2],excellent antagonisms on both V1 and V2 receptors
same,Ki,[2]; [3],0.0832 nM
"CCc1nccn1-c1ccccc1C(=O)Nc1ccc(C(=O)N2CCC(F)(F)/C(=C\C(=O)OC)c3ccccc32)cc1 [Example 42, methyl (Z)-[1-[4-[2-(2-ethyl-1H-imidazol-1yl)benzoyl]amino]benzoyl-4,4-difluoro-2,3,4,5-tetrahydro-1H-1-benzazepin-5-ylidene]acetate]",Binding activity on arginine vasopressin V2 receptor (pKi),[1],6.33
same,V1 selectivity (in words),[2]; V1 versus V2 receptor binding,excellent in V1 selectivity
same,Ki,[2]; [3],1.15 nM
same,V1 receptor antagonism compared with OPC-21268 (in words),[2]; versus OPC-21268,markedly stronger V1 receptor antagonism than that of OPC-21268
"CN1CCN(C/C=C2/c3ccccc3N(C(=O)c3ccc(NC(=O)c4ccccc4-c4ccccc4)cc3)CCC2(F)F)CC1.Cl.Cl [Example 80, (Z)-4'-[[4,4-difluoro-5-[2-(4-methyl-1-piperazinyl)ethylidene]-2,3,4,5-tetrahydro-1H-1-benzazepin-1-yl]carbonyl]-2-phenylbenzanilide dihydrochloride]",Binding activity on arginine vasopressin V2 receptor (pKi),[1],8.50
same,Ki,[2]; [3],0.363 nM
"Cl.O=C(Nc1ccc(C(=O)N2CCC(F)(F)/C(=C\CN3CCCC3)c3ccccc32)cc1)c1ccccc1-c1ccccc1 [Example 81, (Z)-4'-[[4,4-difluoro-5-[2-(1-pyrrolidinyl)ethylidene]-2,3,4,5-tetrahydro-1H-1-benzazepin-1-yl]carbonyl]-2-phenylbenzanilide hydrochloride]",Binding activity on arginine vasopressin V2 receptor (pKi),[1],8.64
same,Ki,[2]; [3],0.724 nM
"CN(C)CC/C=C1\c2ccccc2N(C(=O)c2ccc(NC(=O)c3ccccc3-c3ccccc3)cc2)CCC1(F)F.Cl [Example 82, (E)-4'-[[4,4-difluoro-5-(3-dimethylaminopropylidene)-2,3,4,5-tetrahydro-1H-1-benzazepin-1-yl]carbonyl]-2-phenylbenzanilide hydrochloride]",Binding activity on arginine vasopressin V2 receptor (pKi),[1],8.13
same,Ki,[2]; [3],2.63 nM
"O=C(Nc1ccc(C(=O)N2CCC(F)(F)/C(=C\C(=O)N3CCC(N4CCCCC4)CC3)c3ccccc32)cc1)c1ccccc1-c1ccccc1 [Example 83, (Z)-4'-[[4,4-difluoro-5-[[(4-piperidinopiperidino)carbonyl]piperidyl)carbamoyl]methylene]-2,3,4,5-tetrahydro-1H-1-benzazepin-1-yl]carbonyl]-2-phenylbenzanilide hydrochloride]",Binding activity on arginine vasopressin V2 receptor (pKi),[1],8.47
same,Ki,[2]; [3],0.234 nM
"CN1CCC(N(C)C(=O)/C=C2/c3ccccc3N(C(=O)c3ccc(NC(=O)c4ccccc4-c4ccccc4)cc3)CCC2(F)F)CC1 [Example 84, (Z)-4'-[[4,4-difluoro-5-[[N-methyl-N-(1-methyl-4-piperidyl)carbamoyl]methylene]-2,3,4,5-tetrahydro-1H-1-benzazepin-1-yl]carbonyl]-2-phenylbenzanilidehydrochloride]",Ki,[2]; [3],0.102 nM
"CN(C)C1CCN(C(=O)/C=C2/c3ccccc3N(C(=O)c3ccc(NC(=O)c4cccc(Cl)c4)cc3)CCC2(F)F)CC1.Cl [Example 96, (Z)-3-chloro-4'-[[4,4-difluoro-5-[[(4-dimethylaminopiperidino)carbonyl]methylene]-2,3,4,5-tetrahydro-1H-1-benzazepin-1-yl]carbonyl]benzanilide hydrochloride]",Binding activity on arginine vasopressin V2 receptor (pKi),[1],8.13
same,Ki,[2]; [3],2 nM

# Source: patent US5710150A, “Benzazepine derivative, pharmaceutical composition thereof, and intermediate thereof” (Yamanouchi Pharmaceutical Co., Ltd., priority 1993, dated 1998)
